Consider 13 compounds from article PMC5537346, “Characterisation and pharmacological analysis of a crustacean G protein-coupled receptor: the red pigment-concentrating hormone receptor of Daphnia pulex” (Scientific Reports, 2017).

Entries after “also recorded” stand apart in the source; their conditions may differ. Read-outs that look alike come from different tables or passages of the source. Where a SMILES comes first, the peptide text is derived from it. [ ]: non-standard residue; d: D form. pGlu = O=C1CC[C@@H](C(=O)O)N1

For test [1], the target named is T1, Dappu-RPCHR (Daphnia pulex RPCH receptor) (Daphnia pulex, UniProt A0A240FBD5).
T1 sequence (A0A240FBD5 1-451): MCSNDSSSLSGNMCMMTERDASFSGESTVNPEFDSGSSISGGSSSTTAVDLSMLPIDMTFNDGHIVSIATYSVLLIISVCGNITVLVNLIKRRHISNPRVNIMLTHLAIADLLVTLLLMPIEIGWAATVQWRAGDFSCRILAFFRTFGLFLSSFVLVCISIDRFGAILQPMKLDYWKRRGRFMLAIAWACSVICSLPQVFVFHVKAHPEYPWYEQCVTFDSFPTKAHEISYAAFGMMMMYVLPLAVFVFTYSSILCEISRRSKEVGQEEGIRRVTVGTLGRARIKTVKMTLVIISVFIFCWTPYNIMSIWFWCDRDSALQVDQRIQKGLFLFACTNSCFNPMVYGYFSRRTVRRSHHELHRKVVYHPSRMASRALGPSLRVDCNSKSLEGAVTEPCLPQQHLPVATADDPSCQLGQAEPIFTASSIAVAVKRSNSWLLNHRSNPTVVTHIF
As to the kind of experiment: in vitro cell-based bioluminescence (aequorin Ca2+) assay on Dappu-RPCHR expressing CHO-WTA11 cells. The conditions noted are these: for activation of Dappu-RPCHR (in words): Locmi-ACP statement at 10 µM. On the procedure:
Pharmacological analyses were performed in Chinese hamster ovary (CHO) WTA11 cells stably co-expressing the bioluminescent protein apoaequorin and the promiscuous Gα16 subunit, which couples most agonist-induced GPCRs to the phospholipase C and Ca^2+ pathway, irrespective of their natural signalling cascade.
CHO-WTA11 cells were cultured in monolayers in Dulbecco’s Modified Eagles Medium nutrient mixture F12-Ham (DMEM/F12) with L-glutamine, 15 mM HEPES, sodium bicarbonate and phenol red (Sigma-Aldrich) supplemented with 100 IU/ml penicillin and 100 µg/ml streptomycin (Gibco), 10% heat-inactivated fetal bovine serum (Gibco) and […] zeocin (Gibco). All cells were maintained in an incubator at 37 °C with a constant supply of 5% CO2.
Transfections with pcDNA3.1-Dappu-RPCHR or empty pcDNA3.1 vector were carried out in T75 flasks at 60–80% confluency. Transfection medium was prepared using the Lipofectamine LTX Kit (Invitrogen) with 2.5 ml Opti-MEM® (Gibco), 12.5 µl PlusTM Reagent and 5 µg vector construct in 5 ml polystyrene round-bottom tubes. After a 5 min incubation period at room temperature, 30 µl LTX was added to the medium. After a further incubation period of 30 min at room temperature, the medium was removed and DNA/LTX mix was added dropwise to the cells followed by 3 ml of fresh complete medium.
Following transfection, cells were incubated overnight (37 °C, 5% CO2), then 10 ml of cell medium was added followed by a second overnight incubation (37 °C, 5% CO2). Ligand-induced changes in intracellular Ca^2+ were then monitored in the cells as described below.
CHO-WTA11 cells transfected with receptor construct (or empty vector) plasmid were detached with PBS, complemented with 0.2% EDTA (pH 8.0), and rinsed off the flask with DMEM/F12 with L-glutamine and 15 mM HEPES (Sigma-Aldrich). The number of viable and nonviable cells was determined using a TC20 automated Cell Counter (BIO-RAD). The cells were pelleted for 5 minutes at 800 rpm and resuspended to a density of 5.10^6 cells/ml in sterile filtered bovine serum albumin (BSA) medium (DMEM/F12 with L-glutamine and 15 mM Hepes, supplemented with 0.1% BSA) and loaded with 5 µM Coelenterazine_h (Invitrogen) for 4 h in the dark, at room temperature, while gently shaking to reconstitute the holo-enzyme aequorin. After a 10-fold dilution, cell solution (50 µl) was delivered to each well in a 96-well plate (~25000 cells/well) and cells were exposed to potential ligands reconstituted in BSA medium and distributed across the plate. In every row, BSA medium alone was placed in one well to serve as the negative control (blank). The Ca^2+ response was recorded for 30 s on a Mithras LB 940 (Berthold Technologies). After 30 s, 0.1% Triton X-100, a non-ionic surfactant, was added to the same well to measure the total cellular Ca^2+ response. The total response (ligand + Triton X-100), which is directly related to the number of cells present in the well, was used to normalise the response. The response of each negative control was subtracted from the luminescence obtained for wells within the same row. Calculations were made using the output file from the Microwin software (Berthold Technologies) in Excel (Microsoft). Further analysis was done in GraphPad Prism 5.

The subject of a further test is Nezara viridula. Details: method as in PMID 19686751. The conditions noted are these: in vivo; cited from earlier work.
In a further test the test system is Palaemon pacificus. Also noted: method as in PMID 19686751. The conditions noted are these: in vivo, shrimp Palaemon pacificus; cited from earlier work.
The mark [2] stands for this setting: Table 2, analogues of Dappu-RPCH.
The mark [3] stands for this setting: Table 1, AKH/RPCH and related peptides, calculated from dose-response curves.

As to `CC(C)[C@H](NC(=O)[C@@H]1CCC(=O)N1)C(=O)N[C@@H](CC(N)=O)C(=O)N[C@@H](Cc1ccccc1)C(=O)N[C@@H](CO)C(=O)N[C@@H](C)C(=O)N[C@@H](CO)C(=O)N[C@@H](Cc1c[nH]c2ccccc12)C(N)=O` [[Ala^6]Dappu-RPCH, pQVNFSASWamide] ([pGlu]VNFSASW-NH2), the concentration giving a half-maximal response (EC50) in test [1] (setting [2]) came to 0.532 nM.
In the case of pQVTFSRDWSPamide [Locmi-ACP], in test [1], the “activation of Dappu-RPCHR (in words)” value is recorded as “only slightly active”. For the same compound, the “% of the maximum activation” value in test [1] (peptide concentration of 10 µM) stood at 30%.
Turning to `CC(C)[C@H](NC(=O)[C@@H]1CCC(=O)N1)C(=O)N[C@@H](CC(N)=O)C(=O)N[C@@H](Cc1ccccc1)C(=O)N[C@@H](CO)C(=O)N1CCC[C@H]1C(=O)NCC(=O)N[C@@H](Cc1c[nH]c2ccccc12)C(N)=O` [Manto-CC, pQVNFSPGWamide] ([pGlu]VNFSPGW-NH2), the “EC50 values (in words)” value in test [1] was “more or less the same as for Anaim-AKH”. Also, in test [1] (setting [3]), the EC50 was 0.1 nM.
`CC(C)[C@H](NC(=O)[C@@H]1CCC(=O)N1)C(=O)N[C@@H](CC(N)=O)C(=O)N[C@@H](C)C(=O)N[C@@H](CO)C(=O)N[C@H](C(=O)N[C@@H](CO)C(=O)N[C@@H](Cc1c[nH]c2ccccc12)C(N)=O)[C@@H](C)O` [[Ala^4]Dappu-RPCH, pQVNASTSWamide] ([pGlu]VNASTSW-NH2) came in with an EC50 in test [1] (setting [2]) of 299 nM.
Regarding `CC(C)C[C@H](NC(=O)[C@@H]1CCC(=O)N1)C(=O)N[C@@H](CC(N)=O)C(=O)N[C@@H](Cc1ccccc1)C(=O)N[C@@H](CO)C(=O)N[C@@H](CO)C(=O)NCC(=O)N[C@@H](Cc1c[nH]c2ccccc12)C(N)=O` [Nepci-AKH, pQLNFSSGWamide] ([pGlu]LNFSSGW-NH2), the concentration for a half-maximal effect (EC50) in test [1] (setting [3]) was 0.272 nM. In addition, the “fold lower affinity / potency relative to Dappu-RPCH” value in test [1] (from EC50 values) is recorded as “about 4 fold”.
With `CC(C)C[C@H](NC(=O)[C@@H]1CCC(=O)N1)C(=O)N[C@@H](CC(N)=O)C(=O)N[C@@H](Cc1ccccc1)C(=O)N[C@@H](CO)C(=O)N1CCC[C@H]1C(=O)NCC(=O)N[C@@H](Cc1c[nH]c2ccccc12)C(N)=O` [Panbo-RPCH, pQLNFSPGWamide] ([pGlu]LNFSPGW-NH2), in test [1] (setting [3]), the concentration giving a half-maximal response (EC50) is 7.93 nM.
Compound `CC(C)[C@H](NC(=O)[C@@H]1CCC(=O)N1)C(=O)N[C@@H](CC(N)=O)C(=O)N[C@@H](Cc1ccccc1)C(=O)N[C@@H](CO)C(=O)N[C@H](C(=O)N[C@@H](C)C(=O)N[C@@H](Cc1c[nH]c2ccccc12)C(N)=O)[C@@H](C)O` [[Ala^7]Dappu-RPCH, pQVNFSTAWamide] ([pGlu]VNFSTAW-NH2) came in with an EC50 in test [1] (setting [2]) of 0.355 nM.
Turning to `CC(C)[C@H](NC(=O)[C@@H]1CCC(=O)N1)C(=O)N[C@@H](CC(N)=O)C(=O)N[C@@H](Cc1ccccc1)C(=O)N[C@@H](CO)C(=O)N[C@H](C(=O)N[C@@H](CCCCN)C(=O)N[C@@H](Cc1c[nH]c2ccccc12)C(N)=O)[C@@H](C)O` [Argsi-RPCH, pQVNFSTKWamide] ([pGlu]VNFSTKW-NH2), the concentration for a half-maximal effect (EC50) in test [1] (setting [3]) is 21.3 nM.
In turn, `C[C@H](NC(=O)[C@@H]1CCC(=O)N1)C(=O)N[C@@H](CC(N)=O)C(=O)N[C@@H](Cc1ccccc1)C(=O)N[C@@H](CO)C(=O)N[C@H](C(=O)N[C@@H](CO)C(=O)N[C@@H](Cc1c[nH]c2ccccc12)C(N)=O)[C@@H](C)O` [[Ala^2]Dappu-RPCH, pQANFSTSWamide] ([pGlu]ANFSTSW-NH2) registered an EC50 in test [1] (setting [2]) of 17.7 nM.
Take `CC(C)C[C@H](NC(=O)[C@@H]1CCC(=O)N1)C(=O)N[C@@H](CC(N)=O)C(=O)N[C@@H](Cc1ccccc1)C(=O)N[C@@H](CO)C(=O)N1CCC[C@H]1C(=O)N[C@@H](CO)C(=O)N[C@@H](Cc1c[nH]c2ccccc12)C(N)=O` [Corpu-AKH, pQLNFSPSWamide] ([pGlu]LNFSPSW-NH2): in test [1], the “EC50 values (in words)” value is recorded as “more or less the same as for Anaim-AKH”. The EC50 in test [1] (setting [3]) was 0.212 nM.
In the case of `CC(C)[C@H](NC(=O)[C@@H]1CCC(=O)N1)C(=O)N[C@@H](CC(N)=O)C(=O)N[C@@H](Cc1ccccc1)C(=O)N[C@@H](CO)C(=O)N[C@H](C(=O)N[C@@H](CO)C(=O)N[C@@H](Cc1c[nH]c2ccccc12)C(N)=O)[C@@H](C)O` [Dappu-RPCH, pQVNFSTSWamide] ([pGlu]VNFSTSW-NH2), in the test on Nezara viridula, the “biological activity in the green stink bug” value was “caused measurable biological activity”. For the same compound, the “effect on pigment migration in a decapod crustacean” value in the test on Palaemon pacificus is “could not affect pigment migration”. The concentration for a half-maximal effect (EC50) was 0.065 nM in test [1], 0.0645 nM in test [1] (setting [3]) and 0.0645 nM in test [1] (setting [2]). In addition, the “concentration at which full activity was achieved” value in test [1] is 0.1 nM.
pQTFQYSRGWTNamide [Dappu-Crz]: the “activation of Dappu-RPCHR (in words)” value in test [1] is on record as “did not activate the receptor; also recorded: could not activate the Dappu-RPCHR at all”.
For `CC(C)[C@H](NC(=O)[C@@H]1CCC(=O)N1)C(=O)N[C@@H](CC(N)=O)C(=O)N[C@@H](Cc1ccccc1)C(=O)N[C@H](C(=O)N1CCC[C@H]1C(=O)N[C@@H](CO)C(=O)N[C@@H](Cc1c[nH]c2ccccc12)C(N)=O)[C@@H](C)O` [Libau-AKH, pQVNFTPSWamide] ([pGlu]VNFTPSW-NH2), the EC50 in test [1] (setting [3]) was 0.179 nM.

Broadly, the EC50 is the midpoint of the concentration-response curve.
